{
  "source": "patent US9005670B2",
  "about": "“Use of histone acetyltransferase inhibitors as novel anti-cancer therapies” (The Johns Hopkins University, priority 2010, dated 2015)",
  "key": {"[1]": {"target": "T1, Sas2/4/5 complex (Saccharomyces cerevisiae, UniProt P40963)", "T1 construct": "made in house; host or cells: E. coli BL21-CodonPlus(DE3)-RIL", "T1 sequence (P40963 whole entry)": "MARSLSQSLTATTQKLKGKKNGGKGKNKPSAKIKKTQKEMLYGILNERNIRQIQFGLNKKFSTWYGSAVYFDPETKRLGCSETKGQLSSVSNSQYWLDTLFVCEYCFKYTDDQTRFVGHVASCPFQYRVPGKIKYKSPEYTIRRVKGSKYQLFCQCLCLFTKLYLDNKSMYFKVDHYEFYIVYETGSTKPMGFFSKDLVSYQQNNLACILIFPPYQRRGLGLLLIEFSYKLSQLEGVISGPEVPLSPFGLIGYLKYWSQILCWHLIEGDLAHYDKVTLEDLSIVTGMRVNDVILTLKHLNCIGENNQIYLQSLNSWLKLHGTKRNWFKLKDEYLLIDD", "T1 sequence (Q04003 whole entry partner)": "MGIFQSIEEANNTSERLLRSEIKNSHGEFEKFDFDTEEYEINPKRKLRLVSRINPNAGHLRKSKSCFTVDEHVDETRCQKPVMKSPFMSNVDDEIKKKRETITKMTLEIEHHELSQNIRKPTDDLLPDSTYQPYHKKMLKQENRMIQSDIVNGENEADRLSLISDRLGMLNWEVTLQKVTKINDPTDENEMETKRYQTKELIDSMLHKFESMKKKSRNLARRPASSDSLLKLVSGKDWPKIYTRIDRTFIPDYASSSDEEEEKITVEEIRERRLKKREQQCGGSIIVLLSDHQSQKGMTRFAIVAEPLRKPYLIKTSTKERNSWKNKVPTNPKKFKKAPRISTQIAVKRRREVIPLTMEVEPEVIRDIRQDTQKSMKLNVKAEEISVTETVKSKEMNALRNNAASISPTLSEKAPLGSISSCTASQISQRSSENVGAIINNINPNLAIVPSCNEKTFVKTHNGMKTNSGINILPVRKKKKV", "T1 sequence (Q99314 whole entry partner)": "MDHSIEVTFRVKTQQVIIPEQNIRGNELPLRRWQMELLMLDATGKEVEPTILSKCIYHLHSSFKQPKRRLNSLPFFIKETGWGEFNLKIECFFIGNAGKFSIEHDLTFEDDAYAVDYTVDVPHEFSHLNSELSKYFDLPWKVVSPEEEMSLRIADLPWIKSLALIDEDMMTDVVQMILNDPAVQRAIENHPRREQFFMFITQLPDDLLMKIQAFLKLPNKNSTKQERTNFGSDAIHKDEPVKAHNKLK", "test": "SAS complex direct radioactive HAT assay", "assay_type": "biochemical", "conditions": "10 μM compound; read-out: Percent inhibition of acetyltransferase, Sas", "method": "(§1) PCAF reactions were performed in 100 mM HEPES, pH 7.9, and contained 200 μM TPP, 5 mM MgCl2, 1 mM DTT, 50 mM NaCl, 0.05 mg/mL BSA, 200 μM NAD, 2.4 mM α-KG, 30 μM acetyl-CoA, 0.037 units α-KGDH, 3.3% DMSO, and 10 μM inhibitor. Reactions took place at 30° C. Reactions were initiated by addition of 10 nM PCAF and were followed at 340 nm over the linear portion of the curve below 10% turnover. AANAT reactions were performed in 100 mM NH4 OAc, pH 6.8, and contained 200 μM TPP, 5 mM MgCl2, 1 mM DTT, 50 mM NaCl, 0.05 mg/mL BSA, 200 μM NAD, 2.4 mM α-KG, 200 μM AcCoA, 0.1 units α-KGDH, 3.3% DMSO, and 10 μM inhibitor. Reactions took place at 25° C. Reactions were initiated with addition of 65 nM AANAT, and followed at 340 nm, as above. Percent inhibition values were compared to those with p300, which were repeated using the protocol given above. […]\n(§2) HAT assays with yeast GCN5, SAS complex, MOZ, and Rtt109/Vps75 complex used the direct radioactive assay described above. […] The amount of enzyme used in each assay was estimated by comparing Coomassie Blue staining of samples with bovine serum albumin standards, analyzed by SDS-PAGE. […] The rate of ^14C-incorporation into histone H3 was quantified by autoradiography. […]"}, "[2]": {"tested_on": "WM983A melanoma cells", "test": "cell cycle analysis, propidium iodide FACS", "assay_type": "cell-based, human", "conditions": "48 hours", "method": "The degree of growth arrest observed in these experiments corresponds with the decrease in ^3H-thymidine incorporation described above.\nCells treated with C646 or DMSO were stained with propidium iodide (PI). Briefly, equal number of cells (greater than 10 6) in 0.5 ml PBS were fixed in 70% ethanol for at least 2 h at 4° C. A stock staining solution containing 10 ml of 0.1% Triton X-100 in PBS, 400 μl of RNase cocktail (equivalent of −200 units of RNase A) (Ambion), and 200 μl of 1 mg/ml PI was prepared. Fixed cells were spun at 200 g for 5 min (Beckman Coulter Allegra® X-12R, with an SX4750A rotor), re-hydrated in 5 ml PBS, and spun again to remove all traces of ethanol. Cells were stained with 1 ml staining solution for 20 min at 37° C., then immediately analyzed on a FACSCalibur flow cytometer (BD Biosciences) at the Johns Hopkins Flow Cytometry Core Facility. Data acquisition and analysis were performed with the CellQuest software (BD). WinMDI 2.9 (http://facs.scripps.edu.software.html) was also used for data presentation."}, "[3]": {"tested_on": "global histone H3 acetylation in WM983A cells", "test": "histone H3 acetylation Western blot in WM983A", "assay_type": "cell-based, human", "conditions": "6 hours, increasing doses", "method": "Cells were treated with each compound for 24 hours, and proliferation was measured via ^3H-thymidine incorporation. […] Nuclear lysates were subjected to Western blot analysis for acetylated H3 (Upstate 06-599). Total H3 (Abeam ab1791) was blotted as a loading control."}, "[4]": {"target": "T2, Rtt109/Vps75 complex (Saccharomyces cerevisiae, UniProt Q07794)", "T2 construct": "made in house", "T2 sequence (Q07794 whole entry)": "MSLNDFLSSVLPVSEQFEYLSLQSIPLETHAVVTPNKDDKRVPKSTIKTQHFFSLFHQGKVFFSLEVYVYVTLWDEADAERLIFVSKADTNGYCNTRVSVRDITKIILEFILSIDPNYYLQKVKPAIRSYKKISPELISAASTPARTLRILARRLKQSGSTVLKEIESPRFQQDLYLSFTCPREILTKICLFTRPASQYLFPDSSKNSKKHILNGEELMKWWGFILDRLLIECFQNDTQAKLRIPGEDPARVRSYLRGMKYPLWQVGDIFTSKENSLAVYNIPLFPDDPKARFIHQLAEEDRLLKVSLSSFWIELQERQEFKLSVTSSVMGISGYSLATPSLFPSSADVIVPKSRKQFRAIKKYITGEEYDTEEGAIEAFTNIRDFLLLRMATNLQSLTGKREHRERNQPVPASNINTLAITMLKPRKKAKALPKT", "T2 sequence (P53853 whole entry partner)": "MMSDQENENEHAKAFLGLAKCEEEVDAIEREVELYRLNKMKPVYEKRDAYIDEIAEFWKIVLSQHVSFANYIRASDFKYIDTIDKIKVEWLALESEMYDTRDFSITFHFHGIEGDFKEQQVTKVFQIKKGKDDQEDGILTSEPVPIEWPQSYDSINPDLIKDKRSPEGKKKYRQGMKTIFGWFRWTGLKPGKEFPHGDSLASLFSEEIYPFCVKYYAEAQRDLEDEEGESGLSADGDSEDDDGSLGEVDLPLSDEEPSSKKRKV", "test": "Rtt109 direct radioactive HAT assay", "assay_type": "biochemical", "conditions": "10 μM compound; read-out: Percent inhibition of acetyltransferase, Rtt109", "method": "as §1, §2"}, "[5]": {"tested_on": "D54 glioblastoma cells", "test": "AlamarBlue growth inhibition, D54", "assay_type": "cell-based", "conditions": "D54, 72 hours", "method": "(§3) Dose response curves were generated using the AlamarBlue® assay (Invitrogen, Carlsbad, Calif.).\n(§4) When inhibition was assessed using the AlamarBlue® assay (Invitrogen, Carlsbad, Calif.), cells were initially seeded at 500 cells per well in a 96-well plate. AlamarBlue® is a non-toxic reagent that measures cellular metabolic activity. Its main ingredient is resazurin, a non-fluorescent indicator dye that is reduced to bright red-fluorescent resorufin in metabolically active cells. AlamarBlue® was added to growth medium at 1/10 of the total volume (e.g., 20 μl in 200 μl total volume). […] Fluorescence reading was taken from the same plate every day for 5 days to ensure that the saturation point was not reached. Fluorescence intensity is proportional to the number of live cells in the plate."}, "[6]": {"tested_on": "H247 glioblastoma cells", "test": "AlamarBlue growth inhibition, H247", "assay_type": "cell-based", "conditions": "H247, 72 hours", "method": "as §3, §4"}, "[7]": {"target": "PCAF (p300/CBP-associated factor) (Homo sapiens, UniProt Q92831)", "sequence (Q92831 493-658 limits assumed, species assumed)": "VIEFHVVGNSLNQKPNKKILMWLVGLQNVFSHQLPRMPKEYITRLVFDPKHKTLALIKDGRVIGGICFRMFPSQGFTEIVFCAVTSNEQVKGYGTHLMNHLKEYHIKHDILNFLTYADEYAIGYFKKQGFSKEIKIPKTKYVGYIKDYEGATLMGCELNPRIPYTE", "test": "PCAF coupled spectrophotometric assay", "assay_type": "biochemical", "conditions": "10 μM compound; read-out: Percent inhibition of acetyltransferase, PCAF"}, "[8]": {"tested_on": "WM35 melanoma cells", "test": "senescence-associated beta galactosidase staining", "assay_type": "cell-based, human", "conditions": "72 hours, low and high serum concentrations", "method": "FIG. 14A includes scatter plots. […] WM35 melanoma cells were also treated with camptothecin as a positive control for apoptosis. FIGS. 14B and 14C include images of the treated cells stained for senescence-associated beta galactosidase."}, "[9]": {"tested_on": "LN382 glioblastoma cells", "test": "AlamarBlue growth inhibition, LN382", "assay_type": "cell-based", "conditions": "LN382, 72 hours", "method": "as §3, §4"}},
  "data": [
    {"smiles": "CC1=NN(c2ccc(C(=O)O)cc2)C(=O)C1=Cc1ccc(-c2cc(C)c(C)cc2[N+](=O)[O-])o1", "note": "[Compound C646, 4-(4,5-dihydro-3-methyl-4-((5-(4,5-dimethyl-2-nitrophenyl)furan-2-yl)methylene)-5-oxopyrazol-1-yl)benzoic acid]", "values": [
      {"measurement": "inhibition at 10 µM", "setting": "[1]", "value": "< 10", "unit": "%"},
      {"measurement": "cell cycle distribution", "setting": "[2]", "value": "decreased the number of cells in S and G2 phase"},
      {"measurement": "global histone H3 acetylation", "setting": "[3]", "value": "dose-dependent reduction"},
      {"measurement": "inhibition at 10 µM", "setting": "[4]", "value": "< 10", "unit": "%"},
      {"measurement": "IC50", "setting": "[5]", "value": 9.3, "unit": "µM"},
      {"measurement": "IC50", "setting": "[6]", "value": 14.4, "unit": "µM"},
      {"measurement": "inhibition at 10 µM", "setting": "[7]", "value": "< 10", "unit": "%"},
      {"measurement": "senescence", "setting": "[8]", "value": "induced sensecence in WM35 cells"},
      {"measurement": "IC50", "setting": "[9]", "value": 35.5, "unit": "µM"}
    ]}
  ]
}
